For data set [1] the following is noted: 101.3 kPa, Liquid; for viscosity: Capillary tube (Ostwald / Ubbelohde) method; for mass density: Pycnometric method.
The nature of data set [2]: xn = mol fraction of the nth substance listed. The note with it: 101.3 kPa, Liquid, x1 = 1; for viscosity: Capillary tube (Ostwald / Ubbelohde) method; for mass density: Pycnometric method.

SMILES strings stand for the structures. Numbers after ± are expanded uncertainties.

For orientation: viscosity means the resistance of a fluid to flow. Broadly, the mass density is mass per unit of volume.

On to `CC(=O)c1ccccc1` [acetophenone], for which the viscosity is 1.68 ± 0.013 mPa·s in data set [1] (298.15 K), 1.54 ± 0.012 mPa·s in data set [1] (303.15 K), 1.41 ± 0.011 mPa·s in data set [1] (308.15 K) and 1.31 ± 0.01 mPa·s in data set [1] (313.15 K). The mass density in data set [1] (298.15 K) was 1024.1 ± 0.6 kg/m3; in data set [1] (303.15 K) it was 1019.9 ± 0.6 kg/m3; in data set [1] (308.15 K), 1015.7 ± 0.6 kg/m3; in data set [1] (313.15 K) it was 1011.2 ± 0.6 kg/m3.

For the compound `OCc1ccccc1` [benzenemethanol], the viscosity is listed as 5.16 ± 0.031 mPa·s in data set [1] (298.15 K), 4.67 ± 0.028 mPa·s in data set [1] (303.15 K), 4.004 ± 0.024 mPa·s in data set [1] (308.15 K) and 3.52 ± 0.021 mPa·s in data set [1] (313.15 K). The mass density was 1041.3 ± 0.4 kg/m3 in data set [1] (298.15 K), 1037.5 ± 0.4 kg/m3 in data set [1] (303.15 K), 1033.7 ± 0.4 kg/m3 in data set [1] (308.15 K) and 1029.4 ± 0.4 kg/m3 in data set [1] (313.15 K).

Consider `CN(C)C=O` [dimethylformamide], for which the viscosity was found to be 0.803 ± 0.006 mPa·s in data set [1] (298.15 K), 0.756 ± 0.006 mPa·s in data set [1] (303.15 K), 0.71 ± 0.005 mPa·s in data set [1] (308.15 K) and 0.673 ± 0.005 mPa·s in data set [1] (313.15 K). Moreover, the mass density in data set [1] (298.15 K) amounted to 944.5 ± 0.3 kg/m3; in data set [1] (303.15 K), 939.8 ± 0.3 kg/m3; in data set [1] (308.15 K), 935.1 ± 0.3 kg/m3; in data set [1] (313.15 K) it was 930.2 ± 0.4 kg/m3.

Regarding `CN(C)C=O` [dimethylformamide] + CC(=O)c1ccccc1, the viscosity is 0.803 ± 0.006 mPa·s in data set [2] (298.15 K), 0.756 ± 0.006 mPa·s in data set [2] (303.15 K), 0.71 ± 0.005 mPa·s in data set [2] (308.15 K) and 0.673 ± 0.005 mPa·s in data set [2] (313.15 K). Moreover, the mass density is 944.5 ± 0.3 kg/m3 in data set [2] (298.15 K), 939.8 ± 0.3 kg/m3 in data set [2] (303.15 K), 935.1 ± 0.3 kg/m3 in data set [2] (308.15 K) and 930.2 ± 0.4 kg/m3 in data set [2] (313.15 K).

On to `CN(C)C=O` [dimethylformamide] + OCc1ccccc1, for which the viscosity in data set [2] (298.15 K) was found to be 0.803 ± 0.006 mPa·s; in data set [2] (303.15 K), 0.756 ± 0.006 mPa·s; in data set [2] (308.15 K) it was 0.71 ± 0.005 mPa·s; in data set [2] (313.15 K) it was 0.673 ± 0.005 mPa·s. Further, the mass density amounted to 944.5 ± 0.3 kg/m3 in data set [2] (298.15 K), 939.8 ± 0.3 kg/m3 in data set [2] (303.15 K), 935.1 ± 0.3 kg/m3 in data set [2] (308.15 K) and 930.2 ± 0.4 kg/m3 in data set [2] (313.15 K).

Source of the values: the NIST ThermoML archive (doi:10.1021/je030163d).
